Data from article PMC12669672, “Structural insights into selective and dual antagonism of EP2 and EP4 prostaglandin receptors” (The EMBO Journal, 2025).
“And” between values parts separate entries of the source, which are not always exact repeats. Identical values can stand only once.

Legend:
EP2 WT = EP2 WT (Homo sapiens, UniProt P43116); assay: GloSensor cAMP assay, PGE2 induced cAMP signaling (activation); format: cell-based; design: The full-length EP2 or EP4 was cloned into the pcDNA3.1 vector (Invitrogen), incorporating an N-terminal FLAG tag; expressed in transfected cells; host or cells: AD293
Description: (§1) The full-length EP2 or EP4 was cloned into the pcDNA3.1 vector (Invitrogen), incorporating an N-terminal FLAG tag. AD293 cells were seeded in six-well plates containing DMEM supplemented with 10% dialyzed FBS 1 day prior to transfection. Following overnight growth, cells were transfected with a 1:1 ratio of receptor construct and GloSensor22F cAMP biosensor (Promega) plasmids.
(§2) Twenty-four hours post-transfection, the cells were transferred to CO2-independent media containing 2% GloSensor cAMP Reagent (Promega) and distributed into 384-well assay plates at a density of 4000 cells per well in 10 μL. […] The plates were then incubated at 37 °C for an additional hour before luminescence measurements were taken using an EnVision plate reader.
(§3) Data analysis was performed using GraphPad Prism software v8.0.1. A nonlinear regression analysis, employing a sigmoidal dose–response model, was conducted to determine the Emax values and half-maximum inhibitory concentrations (IC50) for each compound tested.

EP2-D311A = target: T1, EP2-D311A (Homo sapiens, UniProt P43116, D311A); assay: as above; format: cell-based
T1 construct: The full-length EP2 or EP4 was cloned into the pcDNA3.1 vector (Invitrogen), incorporating an N-terminal FLAG tag; expressed in transfected cells; host or cells: AD293
Description: as §1, §2, §3

EP2-F273A = target: T2, EP2-F273A (Homo sapiens, UniProt P43116, F273A); assay: as above; format: cell-based
T2 construct: The full-length EP2 or EP4 was cloned into the pcDNA3.1 vector (Invitrogen), incorporating an N-terminal FLAG tag; expressed in transfected cells; host or cells: AD293
Description: as §1, §2, §3

[1] = test system: WT and mutant EP2 receptors; assay: Cell-surface expression, FACS with anti-FLAG FITC antibody; design: species or system human; details: single experiments 1st-3rd
Description: Cell-surface expression levels of both wild-type and mutant receptors were assessed using a fluorescence-activated cell sorting (FACS) assay. Briefly described, AD293 cells expressing FLAG-tagged EP2 or EP4 receptors were collected 24 h post-transfection. These cells were then incubated with a mouse anti-FLAG FITC-conjugated antibody (Sigma) at a 1:200 dilution for 2 h at 4 °C in a dark environment. Subsequently, cells were washed with 100 µL of PBS. Surface expression levels were quantified by measuring the fluorescence intensity of FITC using a Guava® easyCyte flow cytometer. Data were normalized relative to the expression levels of the wild-type receptors. These experiments were conducted in triplicate, and the results were expressed as mean ± S.E.M.

[2] = single experiments 1st-3rd, Appendix Fig. S6A
[3] = 1 h, PGE2 log([M]) -7, single experiments 1st-3rd, Fig. 2D, read-out: % cAMP activity (normalized to WT)

EP2 WT, sequence (P43116 whole entry): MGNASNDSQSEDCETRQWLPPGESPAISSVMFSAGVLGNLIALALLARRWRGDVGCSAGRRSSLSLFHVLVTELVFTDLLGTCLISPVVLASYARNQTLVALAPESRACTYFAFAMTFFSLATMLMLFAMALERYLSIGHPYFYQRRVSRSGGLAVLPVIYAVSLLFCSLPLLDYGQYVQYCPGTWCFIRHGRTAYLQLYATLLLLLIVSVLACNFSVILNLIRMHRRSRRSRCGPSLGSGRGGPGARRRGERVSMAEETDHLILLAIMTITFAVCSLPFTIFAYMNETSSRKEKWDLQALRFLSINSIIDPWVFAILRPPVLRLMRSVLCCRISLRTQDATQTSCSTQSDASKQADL
T1 sequence (P43116 whole entry D311A): as the sequence (P43116 whole entry) above, with D311A counted along it
T2 sequence (P43116 whole entry F273A): as the sequence (P43116 whole entry) above, with F273A counted along it

Row | Molecule | Surface expression ( 100% WT) [1] | other results
1 | CCCCC[C@H](O)/C=C/[C@H]1[C@H](O)CC(=O)[C@@H]1C/C=C\CCCC(=O)O [PGE2, Prostaglandin E2] | – | remaining activity at 0.0001 µM (EP2 WT; 1 h, PGE2 log([M]) -10, single experiments 1st-3rd, Fig. 2D, read-out: % cAMP activity (normalized to WT)): 16.5%; Emax (EP2 WT; mean ± S.E.M., n = 3): 100 ± 3.9%; PGE2 cAMP activity (∆pIC50 from EP2 WT) (EP2 WT; [2]): 0.007 and -0.051 and 0.045; remaining activity at 0.1 µM (EP2-D311A; [3]): 91.9%; Emax (EP2-D311A; mean ± S.E.M., n = 3): 92.4 ± 3.9%; PGE2 cAMP activity (∆pIC50 from EP2 WT) (EP2-D311A; [2]): -1.566 and -1.416 and -1.487; remaining activity at 1 µM (EP2-F273A; 1 h, PGE2 log([M]) -6, single experiments 1st-3rd, Fig. 2D, read-out: % cAMP activity (normalized to WT)): 96.2%; remaining activity at 0.1 µM (EP2-F273A; [3]): 32.4%; Emax (EP2-F273A; mean ± S.E.M., n = 3): 117 ± 2.9%
2 | EP2 E23A | 92.71% and 100.19% and 95.51% | –
3 | EP2 M116A | 99.63% and 105.23% and 100.56% | –
4 | EP2 S28A | 106.92% and 107.85% and 105.61% | –
5 | EP2 S86A | 89.91% and 90.65% and 110.47% | –
6 | EP2 S305A | 98.88% and 97.38% and 93.83% | –
7 | EP2 S308A | 115.51% and 112.90% and 88.41% | –
8 | EP2 T82A | 106.36% and 116.26% and 103.74% | –
9 | EP2 W186A | 116.07% and 83.36% and 84.86% | –
10 | EP2 WT | 104.67% and 99.81% and 95.51% | –
